d = 2'-deoxy (DNA); r = 2'-OH (RNA)
Experiments:
TOV21G cells = test: miRNA and p21 expression by quantitative RT-PCR after adriamycin treatment; format: cell-based
Experimental: (§1) TOV21G cells and A549 cells were obtained from the American Type Culture Collection (ATCC). TOV21G p53 and A549 p53 matched pair cell lines were created by stably infecting TOV21G and A549 cells with a lentivirus encoding either H1-term or p53 shRNA. Cells were cultured in Dulbecco's Modified Eagles Medium, supplemented with 10% fetal bovine serum, streptomycin, penicillin and L-glutamine.
(§2) MicroRNA expression was measured in the p53 matched cell lines (p53+/+ or p53−/− sh) either untreated or following treatment with various doses of the DNA damaging agent adriamycin (0, 10, 50 and 200 nM adriamycin). Forty-eight hours post treatment, RNA was harvested and the expression levels of miR-34a, miR-192, miR-215 and p21 were determined by quantitative RT-PCR with Taqman analysis carried out as described in Raymond C. K. et al., RNA 11: 1737-1744 (2005).

A549 cells = test: as above; format: cell-based
Experimental: as §1, §2

HCT116DICER^ex5 cells [1] = test: Cell cycle FACS screen of pools of three siRNAs per gene (G1 after nocodazole, G2/M after aphidicolin); format: cell-based, human; settings: pools of 3 siRNAs/gene at 100 nM final, FACS 66 hours post-transfection, average of two experiments; for % G2 (Avg), Aphidicholin+: aphidicolin 2 μg/mL 18 h; for % G1 (Avg), Nocodazole+: nocodazole 100 ng/mL 18 h
Excerpt: To identify targets whose modulation influences the cell cycle arrest phenotype observed with miR-192 expression, the 62 candidate genes identified as described in Example 2 and shown in TABLE 3 were silenced individually by transfecting a pool of 3 gene-specific siRNA duplexes per gene (each directed to a different region of the gene) into HCT116DICER^ex5 cells. The siRNA duplex sequences (3 duplexes per gene) used to target each of the 62 genes are shown below in TABLE 5. The siRNA duplex oligonucleotides were obtained from Sigma-Genesys, as described in Linsley, P. S. et al., Mol Cell Biol 27:2240-2252 (2007).
HCT116DICER^ex5 cells were transiently transfected with pools of three different siRNA duplexes per gene at a 100 nM final concentration using Lipofectamine RNAiMax (Invitrogen), according to the manufacturer's instructions. At 48 hours post transfection, cells were left untreated, treated with nocodazole (100 ng/mL, Sigma-Aldrich), or treated with aphidicolin (2 μg/mL, Sigma-Aldrich) for an additional 18 hours before harvesting. The cells transfected with the siRNA pools were then screened by FACS analysis as described in Example 3 for the percentage of cells arrested in G1 or G2/M as compared to the negative siRNA luciferase control.
The siRNA pools tested in this screen were ranked according to the percentage of cells arrested in G1 or G2/M following transfection, as compared with a negative control siRNA targeting luciferase. To avoid being misled by possible RNAi off-target effects, the siRNA pools were deconvoluted to identify genes for which at least 2 different siRNA duplexes from the pool caused the cell cycle arrest phenotype (data not shown).
TABLE 6 summarizes the data obtained 66 hours post-transfection by FACS analysis showing the cell cycle distribution of the HCT116DICER^ex5 cells transfected with siRNA pools of 3 siRNAs/gene. Each pool was analyzed in two separate experiments, and the average percentage of the cells trapped in G1 (following nocodazole treatment), or G2/M (following aphidicolin treatment) are shown in TABLE 6.

HCT116DICER^ex5 cells [2] = test: Transfection of siRNA pools (G1 or G2 gene set) at suboptimal levels, cell cycle FACS analysis (nocodazole or aphidicolin); format: cell-based, human; settings: 100 nM, 66 hours post transfection
Experimental: […] At 48 hours post-transfection into HCT116DICER^ex5 cells, the cells were treated with nocodazole for an additional 18 hours prior to FACS analysis.
[…] At 48 hours post-transfection into HCT116DICER^ex5 cells, the cells were treated with aphidicolin for an additional 18 hours prior to FACS analysis.

HCT116DICER^ex5 cells [3] = test: Cell cycle FACS analysis of siRNAs against top G1 and G2 arrest genes (nocodazole or aphidicolin); format: cell-based, human; settings: 100 nM siRNA
Experimental: Of the 62 genes shown above in TABLE 6, the 10 genes whose targeting by siRNA caused the largest percentage of cells to arrest in G1, listed below in TABLE 7, were transfected into HCT116DICER^ex5 cells in another experiment as follows.
HCT116DICER^ex5 cells were transfected with […] miR-192 or 100 nM siRNA against luciferase, or 100 nM siRNA (one siRNA duplex of the pool of three) against the putative miR-192 target of interest, as indicated in TABLES 7 and 8. At 48 hours post transfection, cells were treated with nocodazole or aphicicolin for an additional 18 hours prior to FACS analysis. The results for the nocodazole treated cells (% of cells in G1) are provided in TABLE 7, and graphically illustrated in FIG. 3A. The results for the aphidicolin treated cells (% of cells in G2) are provided in TABLE 8 and graphically illustrated in FIG. 3B.

[4] = tested on: 3′ UTRs of the 18 candidate genes in U-2-OS cells; test: 3′ UTR luciferase reporter analysis; format: cell-based; settings: 10 nM, 24 hours post-transfection
Excerpt: In order to test whether miR-192 is regulating these genes through seed sequence-specific recognition of binding sites within their 3' UTRs, a series of reporter constructs were generated containing the entire natural 3' UTRs of the 18 candidate genes (BCL2, CDC7, CUL5, DLG5, DTL, ERCC3, HOXA10, HRH1, LMNB2, MAD2L1, MCM10, MIS12, MPHOSPH1, PIM1, PRPF38A, […]1, SEPT10 and SMARCB1) inserted downstream of a luciferase open reading frame (SwitchGear Genomics) to create 3' UTR luciferase reporter plasmids. U-2-OS cells were transfected first with 10 nM miR-192 or 10 nM miR-192 mutant, and subsequently transfected 4 to 6 hours later with these 3' UTR reporter plasmids. A renilla luciferase expression plasmid from dual luciferase system (Promega) was used as an internal control. Luciferase activity was measured at 24 hours post-transfection, and quantified relative to renilla luciferase activity.

HCT116DICER^ex5 cells [5] = test: Cell cycle distribution by propidium iodide FACS after miR-192 duplex transfection (untreated, nocodazole or aphidicolin); format: cell-based, human; settings: for % Cells with 2N (G1/S) / % Cells with 4N (G2/M): 10 nM duplex, 66 hours after transfection
Experimental: At 48 hours post transfection, cells were left untreated, treated with nocodazole (100 ng/mL, Sigma-Aldrich), or treated with aphidicolin (2 μg/mL, Sigma-Aldrich) for an additional 18 hours before harvesting. The cells were then trypsinized, collected, fixed and stained with a propidium iodide solution. BrdU-labeling was performed according to the manufacturer's instructions (BD-Pharmigen). For phospho-histone H3 analysis, cells were fixed and permeabilized with IPF buffer (100 mM PIPES pH 6.8, 10 mM EDTA, 1 mM MgCl2, 0.2% Triton X-100, 4% formaldehyde) and stained with propidium iodide and anti-phospho-histone H3 antibody conjugated to Alexa-488 (Cell Signaling Technology). The cells were analyzed using a FACSCalibur flow cytometer (Beacton Dickinson) and FlowJo software (Tree Star, Inc.).

[6] = tested on: CDC7, LMNB2, MAD2L1 and CUL5; test: Western blot analysis; format: cell-based, human; settings: HCT116DICER^ex5 cells, 10 nM, data not shown
Experimental: HCT116DICER^ex5 cells were transfected with 10 nM siRNA against luciferase or 10 nM miR-192 or 10 nM miR-192 mutant, and lysates were prepared at 28 hours or 48 hours post-transfection. For immunoblotting, 30 μg of whole cell lysate extracted in a modified RIPA buffer (150 mM NaCl, 50 mM Tris pH 7.4, 1 mM EDTA, 1% NP-40, 0.1% SDS) was used per sample. CDC7, LMNB2, MAD2L1 and CUL5 were detected by Western blot using anti-CDC7 (sc-56275, Santa Cruz Biotechnology Inc.), anti-LMNB2 (MAB3536, Millipore), anti-MAD2L1 (ab55452, Abcam) and anti-CUL5 (Invitrogen) antibodies, and protein levels were compared to the level of β-actin expression as detected by an anti-β-actin antibody (Abcam).

COc1cccc2c1C(=O)c1c(O)c3c(c(O)c1C2=O)C[C@@](O)(C(=O)CO)C[C@@H]3O[C@H]1C[C@H](N)[C@H](O)[C@H](C)O1 [adriamycin]
miR-192, miR-215 and miR-34a expression (TOV21G cells; TOV21G cells, adriamycin 10, 50 or 200 nM, 48 hours post treatment): up-regulation | expression of miR-192 and miR-215 (TOV21G cells; p53 deficient TOV21G cells, adriamycin 10, 50 or 200 nM): not | p21 expression (TOV21G cells; p53 knockdown TOV21G cells): lack of p21 induction | expression of miR-192 and miR-215 (TOV21G cells; wild type (p53+/+) TOV21G cells, adriamycin 10, 50 or 200 nM): upregulated in a dose dependent manner | miR-192, miR-215 and miR-34a expression (A549 cells; A549 cells, adriamycin 10, 50 or 200 nM, 48 hours post treatment): up-regulation | expression of miR-192 and miR-215 (A549 cells; p53 deficient A549 cells, adriamycin 10, 50 or 200 nM): not | p21 expression (A549 cells; p53 knockdown A549 cells): lack of p21 induction | expression of miR-192 and miR-215 (A549 cells; wild type (p53+/+) A549 cells, adriamycin 10, 50 or 200 nM): upregulated in a dose dependent manner

FGF2
% G2 (Avg), Aphidicholin+ (HCT116DICER^ex5 cells [1]): 19.8% | % G1 (Avg), Nocodazole+ (HCT116DICER^ex5 cells [1]): 33.7%

Luc siRNA: Control siRNA targeting luciferase, SEQ ID NOS: 11/12 (chain 1 UCGAAGUAUUCCGCGUACGTT; chain 2 CGUACGCGGAAUACUUCGATT; sugars from the 5' end r19 d2, backbone not given here) [reference compound]
% G1 (HCT116DICER^ex5 cells [2]; after aphidicolin treatment): 66.3% | % G2 (HCT116DICER^ex5 cells [2]; after aphidicolin treatment): 15.6% | % G1 (HCT116DICER^ex5 cells [2]; nocodazole): 11.7% | % G2 (HCT116DICER^ex5 cells [2]; nocodazole): 83.8% | % Cells in G2 (HCT116DICER^ex5 cells [3]; aphidicolin 18 hours from 48 hours post transfection): 19.2% | % Cells in G1 (HCT116DICER^ex5 cells [3]; nocodazole 18 hours from 48 hours post transfection): 18.5% | % G2 (Avg), Aphidicholin+ (HCT116DICER^ex5 cells [1]): 18.9% | % G1 (Avg), Nocodazole+ (HCT116DICER^ex5 cells [1]): 13.8%

miR-192 mutant: Seed region mutant miR-192 duplex, guide CUGCACUAUGAAUUGACAGCC (SEQ ID NO:8), passenger SEQ ID NO:9 (sense CUGUCAAUUCAUAGUGCUGAU; listed as RNA, chemistry not given here) [reference compound]
regulation of 3′ UTR luciferase reporters of the 18 genes [4]: not | % Cells with 2N (G1/S) (HCT116DICER^ex5 cells [5]; aphidicolin 2 μg/mL 18 hours): 66.5% | % Cells with 4N (G2/M) (HCT116DICER^ex5 cells [5]; aphidicolin 2 μg/mL 18 hours): 16.1% | % Cells with 2N (G1/S) (HCT116DICER^ex5 cells [5]; nocodazole 100 ng/mL 18 hours): 17% | % Cells with 4N (G2/M) (HCT116DICER^ex5 cells [5]; nocodazole 100 ng/mL 18 hours): 66.3% | accumulation in the G2/M phase (HCT116DICER^ex5 cells [5]; treated with aphidicolin): did not | % Cells with 2N (G1/S) (HCT116DICER^ex5 cells [5]; untreated): 49.9% | % Cells with 4N (G2/M) (HCT116DICER^ex5 cells [5]; untreated): 30.8% | protein level [6]: not

From US20110118337A1, “Method of Using Compositions Comprising MIR-192 and/or MIR-215 for the Treatment of Cancer” (Merck Sharp & Dohme Corp., priority 2008, published 2011)
